{
  "source": "patent US5821084A",
  "about": "“Osteoblast-testicular protein tyrosine phosphatase” (The Regents of the University of Michigan, priority 1994, dated 1998)",
  "key": {"OST-PTP mRNA": {"system": "OST-PTP mRNA", "format": "cell-based, rat", "excerpt": "Poly A^+ RNA was extracted from an array of adult rat tissues: uterus, ovary, testis, kidney, heart, liver, lung, spleen, brain, skeletal muscle, smooth muscle, pancreas and retina. Poly A^+ RNA derived from UMR106 was used as a standard to control for expression in bone. […] RNA fractionated in such gels was transferred to Magnagraph nylon membrane (MSI) in 20× SSC by capillary action method. Two different types of probe; riboprobe (RNA) or random primed cDNA probe, were used depending on the experiment. […] All DNA probes were labeled with ^32 P-a (3000 Ci/mM) by the Random Primers DNA labeling kit using manufacturer's recommended conditions (GibcoBRL Life Technologies). […] For hybridizations, 10^6 cpms/ml probe was added. Following hybridization, the blots were washed twice at room temperature in 1× SSC+0.1% SDS (30 minutes per wash), and then washed twice in 0.1× SSC+0.1% SDS (30 minutes per wash) once at room temperature and once at 68° C. The prehybridization/hybridization conditions for the DNA probes were the same as described above except the temperature was lowered to 43° C. […] The washes were done as described above. The results were visualized either by autoradiography or by scanning with a phosphorimager (Molecular Dynamics). All quantifications were normalized against the amount of cyclophilin message which was considered to be standard for any given conditions.\nParathyroid hormone is an important bone hormone. […] The UMR106 cells were cultured as described above until confluence. The cells were then washed twice in phosphate buffered saline followed by incubation for 5 hours at 37° C. in serum free DMEM. After serum deprivation, 100 nM parathyroid hormone (PTH) was added to the cultures and incubation continued for 4, 8, 12, and 16 hours at 37° C. RNA was then isolated from the cells as described above."}, "UMR106 cells": {"system": "UMR106 cells", "settings": "cited from earlier work"}, "[1]": {"system": "other two novel PTPase clones", "assay": "Northern blot of other novel PTPase clones in PTH-treated UMR106 cells", "format": "cell-based, rat", "settings": "PTH treatment", "protocol": "RNA was analyzed by Northern blot hybridization to determine the tissue specificity of the OST-PTP clone. Poly A^+ RNA was extracted from an array of adult rat tissues: uterus, ovary, testis, kidney, heart, liver, lung, spleen, brain, skeletal muscle, smooth muscle, pancreas and retina. Poly A^+ RNA derived from UMR106 was used as a standard to control for expression in bone. The RNA preparations were quantitated by absorbance at 260 nm and, depending on the message abundance, either total cellular RNA or poly A+ RNA was electrophoretically separated in a 6.6% formaldehyde-1%agarose gel. RNA fractionated in such gels was transferred to Magnagraph nylon membrane (MSI) in 20× SSC by capillary action method. Two different types of probe; riboprobe (RNA) or random primed cDNA probe, were used depending on the experiment. The riboprobe used for hybridization corresponded to the extracellular domain of OST-PTP, and was labeled by in vitro transcription using ^32 P-a (3000 Ci/mM) as described by manufacturers (Promega). […] All quantifications were normalized against the amount of cyclophilin message which was considered to be standard for any given conditions. […]"}},
  "data": [
    {"substance": "parathyroid hormone [PTH]", "values": [
      {"measurement": "change of OST-PTP message at later time points", "setting": "OST-PTP mRNA; UMR106 cells, 100 nM PTH, later than 4 hours (8, 12, 16 hours)", "result": "further increases"},
      {"measurement": "PTH concentration effective in increasing OST-PTP transcripts", "setting": "OST-PTP mRNA; UMR106 cells, 18 hours", "result": 1, "unit": "nM"},
      {"measurement": "effect on OST-PTP transcripts of exposure for less than 4 hours", "setting": "OST-PTP mRNA; UMR106 cells, regardless of concentration (10 pM-100 nM)", "result": "no significant effect"},
      {"measurement": "increase of PTP-OST (OST-PTP) message", "setting": "OST-PTP mRNA; umr106 cells, 4 h, 0.1 µM", "result": "≤ 5", "unit": "fold"},
      {"measurement": "effect on cell proliferation and DNA synthesis", "setting": "UMR106 cells", "result": "inhibit cell proliferation, and DNA synthesis"},
      {"measurement": "effect of PTH on the other two novel PTPase clones", "setting": "[1]", "result": "Neither of the other two novel PTPase clones were altered"}
    ]}
  ]
}
